The results in this text go back to patent US20040115249A1, “Ionic compounds of quaternary ammonium cations with anions of preservation acids, preparation thereof, and use thereof for preservation” (priority 2002, published 2004).

In the test the test system is microorganisms from different sectors (molds, yeasts, bacteria). From the text:
The product obtained in example 2 was used in a test of antimicrobial activity.

Regarding “n-alkyldimethylethylbenzylammonium Sorbate [Example 2]”, the minimum inhibitory concentrations entry is on record as “Very low”.
